The results in this text go back to PubChem BioAssay (NCI).

Values joined by “and” are separate entries in the source; they are usually repeats but may differ in a detail not shown here. Equal values may be shown once.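 Interpolation was linear, between the two tested concentrations surrounding the appropriate level; five concentrations were tested over 48 hours in 96-well plates. Here, GI50 denotes the concentration required for 50% inhibition of growth. TGI: total growth inhibition.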

Common to all, as to assay: growth of human tumour cells (NCI), 48 h
Assay [1] relates to HL-60(TB) leukemia.
Assay [2] relates to IGROV1 ovarian.
The subject of assay [3] is MOLT-4 leukemia.
Assay [4] deals with NCI-H460 lung.
In assay [5] the test system is OVCAR-8 ovarian.
The test system of assay [6] is RXF 393 renal.
The subject of assay [7] is SK-MEL-5 melanoma.
Assay [8] concerns SW-620 colon.
The test system of assay [9] is UO-31 renal.
Assay [10] relates to HOP-92 NSCLC.
The subject of assay [11] is NCI-H522 lung.
Assay [12] has as its system SK-MEL-2 melanoma.

Turning to `CCSc1nc(N)c2c(-c3ccc(OC)c(OC)c3)c3c(nc2n1)CCCC3`, the TGI in assay [1], in [2], in assay [3], in assay [4], in [5] and in [6] was over 100 µM in each case. Moreover, the TGI in assay [7], in assay [8] and in assay [9] was over 100 µM throughout.
For the compound `CCC(=O)Nc1ccc(N=Cc2cccc(Oc3ccccc3)c2)cc1`, the TGI in assay [1] is 63 µM; in [10] it was over 100 µM; in [2] it was over 100 µM; in [3], 76.8 µM; in assay [11] it was over 100 µM; in [5], 49.1 µM. Also, the TGI in [6], in [12], in assay [7], in assay [8] and in assay [9] was over 100 µM throughout.
`O=C1/C(=C/c2cccnc2)C(n2cccc2)c2c(Br)sc(Br)c21` (centres undefined): the TGI is 5.57 µM in [1]; 4.64 µM in assay [10]; 3.38 µM in [2]; 5.34 µM in [3]; 18.9 µM in assay [4]; 12.6 µM in assay [11]. The TGI in assay [5] is 4.81 µM; in [6] it was 4.45 µM; in [12] it was 4.63 µM; in assay [7], 21.5 µM; in [8] it was over 21.9 µM; in [9] it was 3.43 µM.
As to `CC1C(=O)OC2CC[N+]3(CC(=O)c4ccc(Br)cc4)CC=C(COC(=O)C(C)(O)C1(C)O)C23` (centres undefined), the TGI in assay [1], in [10], in assay [2], in assay [3], in assay [4] and in assay [11] was over 375 µM throughout. For the same compound, the TGI in assay [5] is over 17.4 µM; in assay [6] it was over 375 µM; in [12], over 375 µM; in [7], over 375 µM; in assay [8] it was over 375 µM; in [9], over 375 µM.
For the compound `N#C[S-].[Nd+3].c1cnc2c(c1)ccc1cccnc12.c1cnc2c(c1)ccc1cccnc12.c1cnc2c(c1)ccc1cccnc12`, the TGI in [10] came out at 17.2 µM; in assay [2], 25.3 µM; in [3] it was 6.64 µM; in [11], 18.1 µM; in assay [7] it was 14.1 µM; in [8], 24.7 µM. Also, in assay [9], the TGI is 11.2 µM.
Take `Cc1cc(NC(=S)Nc2ccccc2)c(NC(=S)Nc2ccccc2)cc1C`: the TGI in [1] was 5.23 µM; in assay [10], over 100 µM; in assay [2], over 100 µM; in [3] it was over 60.1 µM; in assay [4] it was over 61.7 µM; in [11], 32.4 µM. In addition, the TGI in assay [5] was over 100 µM; in [6] it was over 80.8 µM; in assay [12] it was over 31.6 µM; in [7] it was over 100 µM; in [8], over 100 µM; in assay [9], over 74.6 µM.
Consider `CC1=C(C)C(=O)O[C@@H]([C@](C)(O)[C@]2(O)CC[C@@]3(O)[C@@H]4C[C@H]5O[C@]56[C@@H](O)C=CC(=O)[C@]6(C)[C@H]4CC[C@]23C)C1`, for which the GI50 is 0.0665 µM and 0.053 µM in [1]; 0.0688 µM and 0.177 µM in assay [3]; 2 µM in [4]; 0.0804 µM and 0.0721 µM in assay [11]; 0.155 µM in [5]; 0.21 µM and 0.0646 µM in assay [6]. Also, the GI50 in assay [12] was 0.385 µM; in assay [8] it was 0.266 µM and 0.0856 µM. In addition, the TGI in assay [10] is 0.345 µM; in assay [2] it was 9.53 µM and 6.51 µM; in [4], 9.22 µM and 9.66 µM; in assay [11], 2.16 µM and 1 µM; in assay [5], 4.2 µM; in assay [6], 0.575 µM and 0.516 µM. The TGI is 1.65 µM and 2.56 µM in assay [12]; 2.18 µM in assay [7]; 0.787 µM and 0.574 µM in assay [8]; 6.36 µM in [9].
Consider `COc1cc2c(cc1OCCCOc1cc(-c3ccc(F)cc3)nc(C)n1)N=C[C@@H]1CCCN1C2=O`, for which the TGI was 54.1 µM in [1]; over 100 µM in assay [10]; 44.8 µM in assay [2]; 61.1 µM in [3]; over 100 µM in [4]; 37.2 µM in assay [11]. The TGI in assay [5] is over 100 µM; in assay [6] it was 54.3 µM; in [12] it was 35.2 µM; in [7], 40.9 µM; in assay [8], 64 µM; in assay [9], 38.7 µM.
On to `Nc1ccccc1CCCC(=O)O`, for which the TGI in [1], in assay [10], in [2], in assay [3], in [4] and in assay [11] was over 100 µM each time. The TGI in assay [5], in assay [6], in [12], in assay [7], in assay [8] and in assay [9] was over 100 µM throughout.
`O=C(O)CNC(=O)CO/N=C1/C(c2c(O)[nH]c3ccccc23)=Nc2ccccc21`: the TGI in assay [1], in [10], in [2], in assay [3], in assay [4] and in [11] was over 100 µM each time. Moreover, the TGI in assay [5], in assay [6], in assay [12], in [7], in assay [8] and in assay [9] was over 100 µM throughout.
Consider `Cc1ccc(CC(=O)Nc2ccc(NC(=O)/C=C/NC(=O)/C=C/c3ccc(-c4ccccc4)cc3)cc2C(=O)c2ccccc2)cc1`, for which the TGI in [1] was found to be 54.4 µM; in assay [2], 2.16 µM; in assay [3], 9.16 µM; in assay [4] it was 4.6 µM; in assay [5], 2.21 µM; in [6] it was 3.52 µM. The TGI in [12] came to 5.79 µM; in [7], 5.14 µM; in assay [8] it was 3.44 µM; in [9], 13.7 µM.
Consider `COCc1nc2c(OC)cc(-c3nc4nc(N5CCN(C)CC5)ccc4[nH]3)c(OC)c2[nH]1`, for which the TGI in assay [1], in [10], in assay [2], in assay [3], in assay [4] and in [11] was over 100 µM throughout. The TGI is over 100 µM in assay [5]; over 100 µM in assay [6]; 38.8 µM in [7]; over 100 µM in assay [8]; over 100 µM in assay [9].
`Cn1c2ccccc2c2c(-c3ccccc3)[n+]3ccccc3nc21`: the TGI in [1] is 66.6 µM; in assay [10], 39.7 µM; in [2], 80.9 µM; in assay [3], over 100 µM; in [4], 59.6 µM; in assay [11], 69.7 µM. For the same compound, the TGI in assay [5] is over 100 µM; in assay [12], 40.4 µM; in assay [7] it was 33.8 µM; in assay [8], 86.9 µM; in assay [9] it was over 100 µM.
Take `COC(=O)CCC(=O)CC(=O)C1=NS(=O)(=O)c2nc(S(N)(=O)=O)c(Cl)cc2N1`: the TGI in [1], in assay [10], in [2], in assay [3], in [4] and in assay [11] was over 100 µM in each case. For the same compound, the TGI in [5], in [6], in assay [12], in assay [7] and in [9] was over 100 µM each time.
Take `O=c1[nH]c(Nc2ccc(F)c(Cl)c2)nc2nc[nH]c12`: the TGI in [1] is over 100 µM; in [10] it was over 100 µM; in assay [2] it was over 100 µM; in assay [3] it was 39.5 µM; in [4], over 100 µM; in assay [11], over 100 µM. The TGI in assay [5], in assay [12], in assay [7], in assay [8] and in assay [9] was over 100 µM in each case.
`CN(C)c1ccc(/C=C2/SC(=S)NC2=O)cc1`: the TGI in assay [1], in [10], in assay [2], in assay [3], in assay [4] and in assay [11] was over 100 µM throughout. Also, the TGI in assay [5], in assay [6], in [12], in assay [7], in [8] and in assay [9] was over 100 µM in each case.
For the compound `C[n+]1c2ccccc2c(CNc2ccc(S(=O)(=O)N=C(N)N)cc2)c2ccccc21`, the TGI in assay [1] is 7.47 µM; in assay [10] it was 54.3 µM; in assay [2], 66.6 µM; in [3] it was 1.7 µM; in assay [4], 15 µM; in assay [11] it was 32.3 µM. Further, the TGI in assay [5] is 55.4 µM; in assay [6] it was 34.1 µM; in assay [12], 59.5 µM; in [7], 22.8 µM; in [8], 56.8 µM; in assay [9], 45.5 µM.
For `CC(C)(C)NCc1cc(Nc2ccnc3cc(Cl)ccc23)cc(-c2ccc(Cl)cc2)c1O`, the TGI in [1] amounted to 4.01 µM; in assay [10] it was 7.08 µM; in assay [2], 7.18 µM; in [3], 4.55 µM; in [4], 8.18 µM; in [11] it was 7.51 µM. Also, the TGI in assay [5] is 14.8 µM; in assay [6] it was 4.66 µM; in assay [12], 4.02 µM; in assay [7], 3.15 µM; in assay [8], 5.3 µM; in [9] it was 18.1 µM.
In the case of `COCO[C@@H]1C[C@H]2C(O)Nc3ccccc3C(=O)N2C1` (some centres undefined), the TGI in assay [1], in assay [10], in assay [2], in assay [3], in assay [4] and in assay [5] was over 100 µM each time. For the same compound, the TGI in [6], in assay [12], in assay [7], in [8] and in assay [9] was over 100 µM in each case.
Turning to `CCc1n[nH]c(=S)n1/N=C\c1ccc(-c2ccccc2Cl)o1`, the TGI in assay [1] is 68 µM; in [10], over 100 µM; in assay [2], over 100 µM; in assay [3], 45.6 µM; in [4] it was over 100 µM; in [11], 65.8 µM. In addition, the TGI in assay [5] is 61.7 µM; in [6] it was over 100 µM; in assay [12] it was 98 µM; in assay [7] it was 31.2 µM; in assay [8], over 100 µM; in assay [9] it was over 100 µM.
As for `CC(C)=CC1C(COC(=O)c2cc3c(cc2Cl)OCO3)C1(C)C` (centres undefined), the TGI in assay [1] was 47.6 µM; in assay [10], 78 µM; in assay [2], over 100 µM; in assay [3] it was over 100 µM; in assay [4], over 100 µM; in assay [11], 46.4 µM. Besides, the TGI in assay [5] was over 100 µM; in [6], 48.9 µM; in assay [12], 40.6 µM; in assay [7], 39.6 µM; in [8], over 100 µM; in assay [9], over 100 µM.
Take `CC1=NN(c2cccc(Cl)c2)C2(SCC(=O)N2c2nc3ccccc3s2)/C1=C\c1ccc(Cl)cc1` (centres undefined): the TGI in assay [1] is 24.3 µM; in [10] it was 28.3 µM; in assay [2] it was 37.8 µM; in assay [3], 20.8 µM; in assay [4] it was 33.3 µM; in assay [11] it was 39.2 µM. The TGI in [5] was 40.7 µM; in assay [6] it was 38.4 µM; in assay [12] it was 35.7 µM; in assay [7], 30.8 µM; in assay [8], 27.9 µM; in [9], 29.5 µM.
